Test results reported in patent US7495023B2, “Thio semicarbazone and semicarbozone inhibitors of cysteine proteases and methods of their use” (The Regents of the University of California, priority 2002, dated 2009).
Where two headings read alike, the source gives them in different places.

Columns and labels:
T. cruzi (Y strain) = experiment: Anti-trypanosomal cell culture assay, T. cruzi-infected J774 macrophages; format: cell-based; conditions: inhibitor 10 μM, cultures up to 30 days
Method: Drug Screening in Cell Culture. Mammalian cells are routinely cultured in RPMI-1640 medium supplemented with 5-10% heat-inactivated fetal calf serum (FCS) at 37° C. in 5% CO2. The Y strain of T. cruzi is maintained by serial passage in bovine embryo skeletal muscle (BESM) cells. Infectious trypomastigotes are collected from culture supernatants. For drug assays, J774 macrophages were irradiated (5000 rad) and plated onto six-well tissue culture plates 24 h prior to infection with ˜106 trypomastigotes/well. […] Inhibitor stocks (10 mM) in DMSO were stored at 4° C. J774 monolayers treated with a blank containing DMSO are used as a negative control, and monolayers treated with a known trypanocidal inhibitor, 10 μM N-methyl piperazine-Phe-homoPhe-vinyl sulfone phenyl (N-Pip-F-hF-VSPh) acted as a positive control (Engel et al., J. Exp. Med., 188:725-734 (1998)). RPMI medium with or without inhibitor is replaced every 48 h. Cultures are maintained for up to 30 days and monitored daily by contrast phase microscopy. […] The comparative effectiveness of each inhibitor was estimated from plots of the duration of the intracellular cycle of T. cruzi (days) in treated vs untreated control wells.

[1] = biological target: T. cruzi cathepsin L-like protease (cruzain) (Trypanosoma cruzi, UniProt P25779); experiment: biochemical
T. cruzi cathepsin L-like protease (cruzain), sequence (P25779 123-467): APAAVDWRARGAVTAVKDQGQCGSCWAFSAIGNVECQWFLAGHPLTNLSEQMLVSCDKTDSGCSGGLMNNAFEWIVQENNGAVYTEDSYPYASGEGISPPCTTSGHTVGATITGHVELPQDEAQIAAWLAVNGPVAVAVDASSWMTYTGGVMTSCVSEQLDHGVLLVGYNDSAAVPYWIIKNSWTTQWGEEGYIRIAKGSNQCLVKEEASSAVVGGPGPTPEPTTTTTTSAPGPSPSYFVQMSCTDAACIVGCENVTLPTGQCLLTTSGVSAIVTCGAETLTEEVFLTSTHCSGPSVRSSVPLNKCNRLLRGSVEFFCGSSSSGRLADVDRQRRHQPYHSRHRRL
Method: IC50 Determinations. Inhibitors were screened for effectiveness against the T. cruzi cathepsin L-like protease (cruzain) using purified recombinant protein. Cruzain (1 nM) was incubated with 20-50000 nM inhibitor in 100 mM sodium acetate-5 mM DTT buffer (pH 5.50, buffer A) for 5 min at room temperature. […] The increase in fluorescence (excitation at 355 nm and emission at 460 nm) was followed with an automated microtiter plate spectrofluorimeter (Molecular Devices, spectraMAX Gemini). Inhibitor stock solutions were prepared at 20 mM in DMSO, and serial dilutions were made in DMSO (0.7% DMSO in assay). Controls were performed using enzyme alone and enzyme with DMSO. IC50 values were determined graphically using inhibitor concentrations in the linear portion of a plot of inhibition versus log [I] (seven concentrations were tested, and at least two were in the linear range).

cruzain = cruzain (Trypanosoma cruzi, UniProt P25779); format: biochemical; conditions: incubation 90 s to 24 h
cruzain, sequence (P25779 123-467): as above
Method: The time dependence of inhibition was determined by incubating cruzain with inhibitors, DMSO, or enzyme alone at room temperature for time points between 90 s and 24 h. The enzymatic activity was determined as above.
A known irreversible inhibitor, K002 (morpholino urea-Phe-homoPhe-vinyl sulfone benzene; Axys Pharmaceuticals Inc., South San Francisco, Calif.), and a known reversible covalent inhibitor, leupeptin, were used as controls for the thio semicarbazones.

[2] = 5 min incubation, room temperature, pH 5.50, read-out: IC50 against cruzain

Row | SMILES | effect on T. cruzi in cell culture (trypanocidal / trypanostatic / inactive) (T. cruzi (Y strain)) | melting point | also measured
1 | NC(=S)N1CCC(c2ccc(Cl)c(Cl)c2)=N1 [Compound 4e, 3-(3,4-Dichlorophenyl)-2-pyrazoline-1-thiocarboxamide] | trypanocidal | 199.3 to 201.4 °C | cruzain inhibitory activity, in words [1]: better than that of 1i
2 | CCC(=NNC(N)=S)c1cccc(C(F)(F)F)c1 [Compound 2b, 3′-Trifluoromethylpropiophenone Thio Semicarbazone] | trypanocidal | – | cruzain inhibitory activity, in words [1]: better IC50 values than 1i; IC50 [1, 2]: 50 nM
3 | CC(=NNC(N)=S)c1cccc(Br)c1 [Compound 3b, 3′-Bromoacetophenone Thio Semicarbazone] | trypanocidal effect | – | IC50 [1, 2]: 200 nM; time dependence of cruzain inhibition (cruzain): time-dependent
4 | CCC(=NNC(N)=S)c1ccc(Cl)cc1 [Compound 2f, 4′-Chloropropiophenone Thio Semicarbazone] | – | 175.1 to 176.8 °C | –
5 | CCC(=NNC(N)=S)c1cccc(Cl)c1 [Compound 2a, 3′-Chloropropiophenone Thio Semicarbazone] | trypanocidal | – | IC50 [1]: 220 nM
6 | S=C(Nc1cccc(Cl)c1)N1CCC(c2cccc(Br)c2)=N1 [Compound 5d, 3-(3-Bromophenyl)-2-pyrazoline-1-(IL3-chlorophenyl)thiocarboxamide] | no effect on the parasites | 197.5 to 198.8 °C | IC50 [1, 2]: 1000 to 2000 nM
7 | CC(=NNC(N)=S)c1ccc(Cl)c(Cl)c1 [Compound 3h, 3′,4′-Dichloroacetophenone Thio Semicarbazone] | trypanocidal | – | cruzain inhibitory activity, in words [1]: better IC50 values than 1i
8 | CN(C)c1ccc(C=NNC(N)=S)c2ccccc12 [Compound 1l, 4-Dimethylamino-1-naphthaldehyde Thio Semicarbazone] | – | 170.5 to 171.2 °C | –
9 | NC(=S)N1CCC(c2cccc(C(F)(F)F)c2)=N1 [Compound 4g, 3-(3-Trifluoromethylphenyl)-2-pyrazoline-1-thiocarboxamide] | inactive | 159.2 to 161.1 °C | cruzain inhibitory activity, in words [1]: better than that of 1i
10 | NC(=S)N1CCC(c2cccc(Cl)c2)=N1 [Compound 4c, 3-(3-Chlorophenyl)-2-pyrazoline-1-thiocarboxamide] | inactive | – | –
11 | CC(=NNC(N)=S)c1cc(C(F)(F)F)cc(C(F)(F)F)c1 [Compound 3f, 3′,5′-Bis(trifluoromethyl)acetophenone Thio Semicarbazone] | trypanostatic | – | cruzain inhibitory activity, in words [1]: better IC50 values than 1i
12 | CC1CN(C(N)=S)N=C1c1cccc(Cl)c1 (stereo not drawn) [Compound 4d, 3-(3-Chlorophenyl)-4-methyl-2-pyrazoline-1-thiocarboxamide] | trypanocidal | 131.3 °C (dec.) | –
13 | NC(=O)NN=Cc1ccc(-c2cccc(Cl)c2)o1 [Compound 6c, 5-(3-Chlorophenyl)-2-furancarboxaldehyde Semicarbazone] | – | 192.1 to 194.8 °C | –
14 | CCC(=NNC(N)=S)c1ccc(Br)cc1 [Compound 2e, 4′-Bromopropiophenone Thio Semicarbazone] | – | 171.3 to 173 °C | –
15 | Cn1cc(C=NNC(N)=S)c2ccccc21 [Compound 1m, 1-Methylindole-3-carboxaldehyde Thio Semicarbazone] | – | 200.3 to 201.2 °C | –
16 | CCCCCCNC(=S)N1CCC(c2cccc(Br)c2)=N1 [Compound 5f, 3-(3-Bromophenyl)-2-pyrazoline-1-(N-hexyl)-thiocarboxamide] | – | 117 to 118.2 °C | IC50 [1, 2]: 1000 to 2000 nM
17 | CCC(=NNC(N)=S)c1ccc2cc(OC)ccc2c1 [Compound 1k, 6′-Methoxy-2′-propiononaphthone Thio Semicarbazone] | – | 170.5 to 171.2 °C | –
18 | NC(=S)NN=Cc1ccccc1C(F)(F)F [Compound 2p, 2-Trifluoromethylbenzaldehyde Thio Semicarbazone] | – | 248.3 to 249.4 °C | –

Row | SMILES | effect on T. cruzi in cell culture (trypanocidal / trypanostatic / inactive) (T. cruzi (Y strain)) | melting point | also measured
19 | NC(=S)NN=Cc1cccc(Br)c1 [Compound 3a, 3-Bromobenzaldehyde Thio Semicarbazone] | – | – | IC50 [1, 2]: 1300 nM; time dependence of cruzain inhibition (cruzain): time-dependent
20 | CCC(=NNC(N)=S)c1cccc(F)c1 [Compound 2c, 3′-Fluoropropiophenone Thio Semicarbazone] | – | 138.8 to 139.5 °C | –
21 | CCC(=NNC(N)=S)c1ccc(Cl)cc1Cl [Compound 2j, 2′,4′-Dichloropropiophenone Thio Semicarbazone] | – | 171.8 to 173 °C | –
22 | CCC(=NNC(N)=S)c1cc(C(F)(F)F)cc(C(F)(F)F)c1 [Compound 2h, 3′,5′-bis(trifluoromethyl)propiophenone Thio Semicarbazone] | – | – | cruzain inhibitory activity, in words [1]: better IC50 values than 1i; IC50 [1, 2]: 20 nM; increase in activity over 1i (cruzain) ([1]; compared to 1i): ~5 fold
23 | CC(=NNC(N)=S)c1cccc(C(F)(F)F)c1 [Compound 3d, 3-Trifluoromethylacetophenone Thio Semicarbazone] | trypanostatic | – | –
24 | CC(=NNC(N)=O)c1cccc(Br)c1 [Compound 6b, 3′-Bromoacetophenone Semicarbazone] | – | 229.3 to 231.3 °C | –
25 | CC(=NNC(N)=S)c1ccccc1Cl [Compound 2m, 2′-Chloroacetophenone Thio Semicarbazone] | – | 155.8 to 156.7 °C | –
26 | CCC(=NNC(N)=S)c1ccc(OC)cc1 [Compound 2g, 4′-Methoxypropiophenone Thio Semicarbazone] | – | 117.8 to 119.8 °C | –
27 | NC(=S)N1CCC(c2cccc(Br)c2)=N1 [Compound 4a, 3-(3-Bromophenyl)-2-pyrazoline-1-thiocarboxamide] | – | 172.9 to 174.5 °C | decrease in activity as compared to 1i (cruzain) ([1]; compared to 1i): 2 fold; time dependence of cruzain inhibition (cruzain): time-dependent
28 | CC1CN(C(N)=S)N=C1c1cccc(C(F)(F)F)c1 (stereo not drawn) [Compound 4h, 3-(3-Trifluoromethylphenyl)-4-methyl-2-pyrazoline-1-thiocarboxamide] | trypanocidal | 120.8 to 121.9 °C | cruzain inhibitory activity, in words [1]: better than that of 1i
29 | CC(=O)N[C@@H](CC(C)C)C(=O)N[C@@H](CC(C)C)C(=O)N[C@H](C=O)CCCNC(=N)N [leupeptin, reference compound] | – | – | time dependence of cruzain inhibition (cruzain): rapidly time-dependent
30 | CCC(=NNC(N)=S)c1ccccc1 [Compound 2d, Propiophenone Thio Semicarbazone] | – | 116.8 to 117.9 °C | drop / loss of activity compared to 1i (cruzain) ([1]; compared to 1i): at least 2 orders of magnitude
31 | CCC(NNC(N)=S)c1cccc(Br)c1 (stereo not drawn) [Compound 7a, 1-(3′-bromophenyl)propylaminothiourea] | – | – | cruzain inhibitory activity, in words [1]: poor activity; time dependence of cruzain inhibition (cruzain): showed time dependency
32 | CCC(=NN(SC)C(N)=O)c1cccc(Br)c1 [Compound 5a, 3′-Bromopropiophenone N-Methyl Thio Semicarbazone] | – | 156.6 to 158 °C | –
33 | CC1CN(C(N)=S)N=C1c1cccc(Br)c1 (stereo not drawn) [Compound 4b, 3-(3-Bromophenyl)-4-methyl-2-pyrazoline-1-thiocarboxamide] | trypanocidal effect | 107.4 to 109.9 °C | cruzain inhibitory activity, in words [1]: better than that of 1i; IC50 [1, 2]: 80 nM; time dependence of cruzain inhibition (cruzain): time-dependent
34 | FC(F)(F)c1cccc(NC(=S)N2CCC(c3cccc(Cl)c3)=N2)c1 [Compound 5e, 3-(3-Chlorophenyl)-2-pyrazoline-1-(N-3-tri-fluoromethylphenyl)thiocarboxamide] | – | – | time dependence of cruzain inhibition (cruzain): showed time dependency
35 | CC(=NNC(N)=S)c1ccccc1Br [Compound 2l, 2′-Bromoacetophenone Thio Semicarbazone] | – | 144.5 to 146.2 °C | –
